Consider five molecules from patent US3959519A, “Fortification of food materials with a methionine source” (priority 1975, dated 1976).

The test system of data set [1] is Leuconostoc mesenteroides P-60. The data set can be described thus: L-methionine bioavailability from dipeptides by turbidimetric growth response of a methionine-requiring bacterial mutant. The format is cell-based. Particulars: for utilization as a source of L-methionine by L. mesenteroides P-60: 17 hours of incubation at 37°C.; for L-Methionine Response / L-Methionine, % of Theoretical: 17 hours, 37°C. The source says: The utilization of methionine-containing peptide can be shown, for example, in animal feeding tests. However, the formation of free methionine can also be shown directly in tests with a microorganism requiring methionine for its growth and reproduction. The following Example describes a quantitative test involving a known bacterial mutant.
Leuconostoc mesenteroides P-60 was the bacterial mutant used to assess the biological availability of L-methionine in glycyl-D,L-methionine, glycyl-L-methionine and L-methionylglycine. This mutant is unable to synthesize methionine and therefore requires an external source of this amino acid.
Under aseptic conditions, a substrate devoid of L-methionine was supplemented with graded amounts of glycyl-D,L-methionine, glycyl-L-methionine, and L-methionylglycine and then inoculated with a drop of a washed L. mesenteroides P-60 culture. After 17 hours of incubation at 37°C., the growth of L. mesenteroides P-60 in each of the culture tubes was measured turbidimetrically, at a wavelength of […]. Based on the growth response of this mutant to a similar treatment with a standard L-methionine solution of known concentration, the L-methionine response, if any, to the candidate peptides was evaluated.

A short description of data set [2]: Chick feeding test, body weight and feed efficiency on fortified corn-soy rations. The format is in vivo, cockerels (Barred Rock males x Rhode Island females). The conditions noted are these: for difference between responses from methionine and glycylmethionine supplemented rations: 0.15% D,L-methionine vs 0.2% glycyl-D,L-methionine; for feed efficiencies / growth: corn-soy poultry ration with 0.15% D,L-methionine or 0.2% glycyl-D,L-methionine. The source says: For this test, cockerels are produced from a cross of Barred Rock males and Rhode Island females. All the 150 cockerels are selected on the basis that their weight differs no more than 2 grams. The birds are maintained on an all vegetable protein corn-soy basal diet for a 2-week preliminary period. At the end of this period, a median group of 90 birds is selected on the basis of weight, and they are then evenly distributed into three experimental groups, which in turn are placed on the experimental rations (Table 2). The level of glycyl-D,L-methionine in Diet No. 3 is equivalent to the level of D,L-methionine in Diet No. 2, on the basis of L-methioninecontent. The birds are weighed weekly and their feed consumption also determined weekly, to permit weekly feed efficiency evaluations. […] | -- -- 92 g.

Data set [3] in a line: Odor development on storage in sealed containers. The conditions noted are these: recrystallized sample, sealed container, twenty-nine days at 45°C. Type of data set: physicochemical. As to the method:
Samples of virtually odorless, recrystallized D,L-methionine, glycyl-D,L-methionine, and D,L-alanyl-D,L-methionine were stored in sealed containers for twenty-nine days at 45°C.

[4] abbreviates: level tested 6 μg./tube, calculated L-methionine equivalence 4.0 μg.
The mark [5] stands for this setting: level tested 12 μg./tube, calculated L-methionine equivalence 4.0 μg. (glycyl-D,L-methionine) or 8.0 μg. (L-dipeptides).
[6] abbreviates: level tested 24 μg./tube, calculated L-methionine equivalence 8.0 μg.

Where a SMILES comes first, the peptide text is derived from it.

As for `CSCC[C@H](N)C(=O)NCC(=O)O` [L-Methionylglycine, L-methionylglycine] (H-Met-Gly-OH), in data set [1], the “utilization as a source of L-methionine by L. mesenteroides P-60” value (from here on “utilization … by L. mesenteroides P-60”) was “can utilize”. Moreover, the “L-Methionine Response” value was 4.0 µg in data set [1] (setting [4]) and 7.5 µg in data set [1] (setting [5]). Further, the results for the “L-Methionine, % of Theoretical” value in data set [1] (setting [4]) and in data set [1] (setting [5]) were 100% and 94%, respectively.
As for `CSCCC(NC(=O)CN)C(=O)O` (racemic) [Glycyl-D,L-Methionine, glycyl-D,L-methionine], the “utilization … by L. mesenteroides P-60” value in data set [1] is “can utilize”. Further, in data set [1] (setting [5]), the “L-Methionine Response” value is 3.5 µg and the “L-Methionine, % of Theoretical” value is listed as 88%. In addition, in data set [1] (setting [6]), the “L-Methionine Response” value was 7.5 µg and the “L-Methionine, % of Theoretical” value is reported as 94%. In data set [2], the “difference between responses from methionine and glycylmethionine supplemented rations” value was “No significant difference”; the feed efficiencies result is on record as “improved feed efficiencies”; the growth entry was “significant growth increases”. The odor after storage entry in data set [3] is “still virtually odor-free”.
With `CSCCC(NC(=O)C(C)N)C(=O)O` (mixture of isomers) [D,L-alanyl-D,L-methionine], the odor after storage entry in data set [3] is recorded as “developed a typical sulfurous odor”.
Consider `CSCCC(N)C(=O)O` (racemic) [D,L-Methionine, D,L-methionine, reference compound], for which, in data set [2], the “difference between responses from methionine and glycylmethionine supplemented rations” value was “No significant difference”; the feed efficiencies result is “improved feed efficiencies”; the growth entry is on record as “significant growth increases”. Besides, in data set [3], the odor after storage result is reported as “developed a typical sulfurous odor”.
For `CSCC[C@H](NC(=O)CN)C(=O)O` [Glycyl-L-Methionine, glycyl-L-methionine], the “utilization … by L. mesenteroides P-60” value in data set [1] is reported as “can utilize”. In addition, the “L-Methionine Response” value in data set [1] (setting [4]) is 4.5 µg; in data set [1] (setting [5]), 7.8 µg. In addition, the “L-Methionine, % of Theoretical” value in data set [1] (setting [4]) is 112%; in data set [1] (setting [5]), 97%.
